Consider 10 molecules from article PMC12073177 (Molecules, 2025).

For one data set, the target named is T1, β-secretase (BACE-1) (Homo sapiens, UniProt P56817).
T1 construct: purchased Thermo Fisher Scientific, San Diego, CA, USA
The data set is described as follows: BACE-1 FRET-based inhibition assay. Conditions: 60 min at room temperature, mean ± SD, ND = no detectable inhibitory activity. The data set is classed as biochemical.

Data set [1] deals with nitric oxide (NO) production in LPS-stimulated RAW 264.7 cells. Briefly: Nitric oxide production in LPS-stimulated RAW 264.7 cells (Griess reagent). The data set is classed as cell-based, murine. The following applies: for effect on NO production (result in words): 5, 10, 20 and 40 µM, LPS-stimulated RAW 264.7; for reduction of NO production: 40 µM, relative to the LPS-treated group, LPS 24 h.
Description: NO levels in the culture supernatants were quantified using the Griess reagent assay, and absorbance was measured at 540 nm.
RAW 264.7 cells were maintained in Dulbecco’s Modified Eagle Medium (DMEM, Sigma-Aldrich, St. Louis, MO, USA) supplemented with 10% heat-inactivated fetal bovine serum (FBS, Invitrogen, Burlington, ON, Canada) and 1% (w/v) antibiotic-antimycotic solution (Invitrogen, Grand Island, NY, USA). The cells were cultured in a humidified incubator at 37 °C under 95% air and 5% CO2 conditions.
The production of NO was quantified by measuring nitrite levels in the culture supernatants using the Griess reagent (1% sulfanilamide, 0.1% N-(1-naphthyl)-ethylenediamine dihydrochloride, and 5% phosphoric acid). […] The cells were then stimulated with 0.5 μg/mL lipopolysaccharide (LPS, Sigma-Aldrich, CA, USA) for 24 h in a total volume of 200 μL. After incubation, 100 μL of culture supernatant was mixed with an equal volume of Griess reagent and incubated at room temperature for 5 min. Sodium nitrite was used as a standard for calibration, and nitrite concentration was determined by measuring absorbance at 540 nm. All experiments were conducted in triplicate.

Data set [2] can be described thus: DPPH radical scavenging assay (antioxidant activity). The data set is classed as biochemical. Conditions: in methanol, 30 min, absorbance at 540 nm. The procedure: Absorbance was measured at 540 nm. All experiments were conducted in triplicate.
Data set [3] can be described thus: MTT cell viability assay in RAW 264.7 cells. The data set is classed as cell-based, murine. Conditions: mouse, RAW 264.7 macrophage cells, RAW 264.7, MTT; for viability at 24 h: tested concentrations up to 40 μM. On the procedure:
(§1) Absorbance was measured at 570 nm using a microplate reader.
(§2) All experiments were performed in triplicate.

The test system of the next data set is NLRP3. The data set is described as follows: NLRP3 ELISA in LPS-stimulated RAW 264.7 cells. The data set is classed as cell-based, murine. Conditions: for inhibition at 40 µM: Mus musculus, RAW264.7, read-out: NLRP3 inhibition rate; for NLRP3 inhibition (result in words): 40 µM.
Data set [4] has as its target T2, tau protein (tau-BiFC SH-SY5Y cell line) (Homo sapiens, UniProt P10636).
T2 construct: split fluorescent protein fragments for BiFC (complementing N- and C-terminal halves); expressed in transfected cells; host or cells: SH-SY5Y
Briefly: Tau-BiFC SH-SY5Y anti-tau aggregation assay. The following applies: 10 μM, 24 h, compared to the control group. The format is cell-based. On the procedure:
Cells were maintained at 37 °C in a humidified incubator with 5% CO2.

Another data set concerns RAW 264.7 cells. Briefly: MTT cell viability assay in RAW 264.7 cells. The format is cell-based, murine. Conditions: RAW 264.7, MTT, 24 h, 5-40 μM. The procedure:
as §1, §2

Molecules are shown by their SMILES. Some results are limits rather than exact numbers.

T1 sequence (P56817 46-501): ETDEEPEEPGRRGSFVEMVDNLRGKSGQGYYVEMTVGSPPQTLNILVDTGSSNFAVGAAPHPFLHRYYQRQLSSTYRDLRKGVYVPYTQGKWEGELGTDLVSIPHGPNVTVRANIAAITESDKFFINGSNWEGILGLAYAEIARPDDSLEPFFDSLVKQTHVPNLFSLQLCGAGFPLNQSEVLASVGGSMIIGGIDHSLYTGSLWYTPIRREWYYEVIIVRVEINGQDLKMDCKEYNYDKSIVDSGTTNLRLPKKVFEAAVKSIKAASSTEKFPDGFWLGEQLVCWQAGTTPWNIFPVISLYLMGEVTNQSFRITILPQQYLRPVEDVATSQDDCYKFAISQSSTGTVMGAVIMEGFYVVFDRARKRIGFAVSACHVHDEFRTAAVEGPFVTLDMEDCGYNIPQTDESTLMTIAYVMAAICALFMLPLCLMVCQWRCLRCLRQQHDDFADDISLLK
T2 sequence (P10636 1-441 isoform P10636-8): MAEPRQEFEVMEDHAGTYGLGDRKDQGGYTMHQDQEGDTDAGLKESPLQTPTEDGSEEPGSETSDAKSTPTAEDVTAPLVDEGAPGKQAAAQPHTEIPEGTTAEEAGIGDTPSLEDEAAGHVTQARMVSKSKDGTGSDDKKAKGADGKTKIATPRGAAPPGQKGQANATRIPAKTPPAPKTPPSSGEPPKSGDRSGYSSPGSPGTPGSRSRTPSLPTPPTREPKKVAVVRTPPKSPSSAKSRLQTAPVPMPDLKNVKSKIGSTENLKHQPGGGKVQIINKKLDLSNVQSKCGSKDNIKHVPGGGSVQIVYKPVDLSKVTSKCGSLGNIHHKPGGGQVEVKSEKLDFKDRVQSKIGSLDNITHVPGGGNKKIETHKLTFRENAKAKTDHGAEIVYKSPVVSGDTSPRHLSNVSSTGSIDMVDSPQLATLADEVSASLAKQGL
Description for NLRP3: For evaluating the NLRP3 inhibitory activity, the highest concentration of 40 µM was selected, as this concentration had previously been confirmed to maintain cell viability (Section 2.4.1).
To assess NLRP3 inflammasome activation, RAW 264.7 macrophages were seeded at a density of 5 × 10^5 cells/well in 96-well plates. […] The levels of NLRP3 in the culture supernatant were quantified using a commercially available ELISA kit (Lsbio, WA, USA) according to the manufacturer’s protocol. Absorbance was measured at 450 nm, and NLRP3 concentrations were determined using a standard curve, expressed in ng/mL. To ensure statistical accuracy, all experiments were performed in duplicate.
Description for β-secretase (BACE-1): The reaction was initiated by adding 10 µL of a 3× BACE-1 enzyme solution. Plates were incubated at room temperature for 60 min in the dark. After incubation, 10 µL of 2.5 mM sodium acetate was added to terminate the reaction. Fluorescence was measured using a multimode plate reader (Multiskan™ GO, Thermo Scientific, Waltham, MA, USA) with an excitation wavelength of 545 nm and an emission wavelength of 585 nm. The IC50 values were determined by plotting relative fluorescence units per hour (RFU/h) against the logarithmic inhibitor concentrations. All experiments were performed in triplicate.

For the molecule `NC(CCC(=O)NNc1ccccc1C(F)(F)F)C(=O)O` (stereo not drawn) [RA-2CF3, N^5-((2-(triflouromethyl)phenyl)amino)glutamine], the IC50 at β-secretase (BACE-1) came out at 11.6 ± 14 µM; in data set [2], 3 ± 0.03 µM. Moreover, in data set [1], the “effect on NO production (result in words)” value (“effect on NO production” for short) is recorded as “moderate NO-reducing effect”. The same molecule had a viability at 24 h in data set [3] of more than 100%. Besides, the inhibition at 40 µM in the data set with NLRP3 is not below 20%.

For `COc1ccccc1NNC(=O)CC[C@H](N)C(=O)O` [RA-2OMe, N^5-((2-methoxyphenyl)amino)glutamine], the IC50 against β-secretase (BACE-1) was 7.97 ± 2.46 µM; in data set [2] it was 2.81 ± 0.03 µM. Also, the “reduction of NO production” value in data set [1] was 25~35%. In data set [1], the “effect on NO production” value is “concentration-dependent reduction in NO levels”. For the same molecule, the “anti-tau aggregation effect (BiFC fluorescence, result in words)” value (shortened to “anti-tau aggregation effect”) in data set [4] was “moderate inhibitory effects”. The molecule also displayed a viability at 24 h in data set [3] of more than 100%. In addition, in the data set with NLRP3, the inhibition at 40 µM is not below 20%.

For the molecule `N[C@@H](CCC(=O)NNc1ccc2ccccc2n1)C(=O)O` [RA-2Q, N^5-(quinolin-2-ylamino)glutamine], at β-secretase (BACE-1), the “BACE-1 IC50” value was “no detectable BACE-1 inhibitory activity (ND)”. Besides, in data set [1], the “effect on NO production” value is “did not significantly suppress NO production”. In data set [4], the “anti-tau aggregation effect” value is given as “significant reductions in tau aggregation”. 9.7 ± 0.32 µM corresponded to half-maximal inhibition in data set [2] (IC50). Moreover, the “cytotoxicity (result in words)” value in the data set on RAW 264.7 cells is reported as “no significant reduction in cell survival”. In addition, the inhibition at 40 µM in the data set with NLRP3 was not below 20%.

Turning to `NC(CCC(=O)NNc1cccc(C(F)(F)F)c1)C(=O)O` (stereo not drawn) [RA-3CF3, N^5-((3-(triflouromethyl)phenyl)amino)glutamine], the results for the IC50 (on β-secretase (BACE-1); in data set [2]) were 0.33 ± 0.79 µM and 31.7 ± 14.6 µM, respectively. Besides, the “effect on NO production” value in data set [1] was “concentration-dependent reduction in NO levels”. Moreover, the “anti-tau aggregation effect” value in data set [4] is “did not show significant anti-tau effects”. The same molecule gave a viability at 24 h in data set [3] of more than 100%. Also, the inhibition at 40 µM in the data set on NLRP3 was in the range of 10 to 15%.

On to `NC(CCC(=O)NNc1ccc(OC(F)(F)F)cc1)C(=O)O` (stereo not drawn) [RA-4OCF3, N^5-((4-(triflouromethoxy)phenyl)amino)glutamine], for which the half-maximal inhibitory concentration (IC50) worked out at 9.89 ± 13.6 µM against β-secretase (BACE-1) and 3.77 ± 0.09 µM in data set [2]. For the same molecule, the “effect on NO production” value in data set [1] was “concentration-dependent reduction in NO levels”. In data set [3], this molecule had a viability at 24 h of more than 100%. The inhibition at 40 µM with NLRP3 was not below 20%.

For `COc1ccc(NNC(=O)CC[C@H](N)C(=O)O)cc1` [RA-4OMe, N^5-((4-methoxyphenyl)amino)glutamine], the IC50 against β-secretase (BACE-1) was determined as 25 ± 5.72 µM; in data set [2] it was 5.49 ± 0.63 µM. In data set [1], the “reduction of NO production” value is 25~35%. Besides, the “effect on NO production” value in data set [1] is recorded as “concentration-dependent reduction in NO levels”. For the same molecule, the “anti-tau aggregation effect” value in data set [4] is reported as “moderate inhibitory effects”. In data set [3], this molecule had a viability at 24 h of more than 100%. In addition, the inhibition at 40 µM in the data set with NLRP3 is not below 20%.

On to `CN(C)NC(=O)CC[C@H](N)C(=O)O` [RA-DMe, N^5-(dimethylamino)glutamine], for which, at β-secretase (BACE-1), the “BACE-1 IC50” value is reported as “no detectable BACE-1 inhibitory activity (ND)”. The “effect on NO production” value in data set [1] is on record as “moderate NO-reducing effect”. Moreover, in data set [4], the “anti-tau aggregation effect” value is given as “did not exhibit significant anti-tau aggregation activity”. The molecule further gave a concentration for half-maximal inhibition (IC50) in data set [2] of 598 µM. In data set [3], this molecule had a viability at 24 h, 40 µM of more than 80%. The “NLRP3 inhibition (result in words)” value in the data set with NLRP3 is “no significant NLRP3-inhibitory effects”.

As to `CC(C)NNC(=O)CC[C@H](N)C(=O)O` [RA-IPr, N^5-(Isopropylamino)glutamine], the “BACE-1 IC50” value on β-secretase (BACE-1) is listed as “no detectable BACE-1 inhibitory activity (ND)”. For the same molecule, the “effect on NO production” value in data set [1] is reported as “did not significantly suppress NO production”. Besides, the “anti-tau aggregation effect” value in data set [4] is “did not exhibit significant anti-tau aggregation activity”. Half-maximal inhibition in data set [2] (IC50) was put at 2580 ± 359 µM. Further, in the data set on RAW 264.7 cells, the “cytotoxicity (result in words)” value is recorded as “no significant reduction in cell survival”. Further, the “NLRP3 inhibition (result in words)” value in the data set with NLRP3 is “no significant NLRP3-inhibitory effects”.

As for `NC(CCC(=O)NNc1cccc2ccccc12)C(=O)O` (stereo not drawn) [RA-NAP], the results for the IC50 (at β-secretase (BACE-1); in data set [2]) were 0.66 ± 1.05 µM and 1.77 ± 0.12 µM, respectively. Also, in data set [1], the “effect on NO production” value is reported as “moderate NO-reducing effect”. Besides, in data set [4], the “anti-tau aggregation effect” value was “significant reductions in tau aggregation”. In data set [3], this molecule displayed a viability at 24 h, 40 µM of more than 80%. Also, the inhibition at 40 µM in the data set on NLRP3 lay in the range of 10 to 15%.

For the molecule `N[C@@H](CCC(=O)NNc1ccccn1)C(=O)O` [RA-PYD, N^5-(pyridin-2-ylamino)glutamine], the figures for the half-inhibitory concentration (IC50) (against β-secretase (BACE-1); in data set [2]) were 0.32 ± 0.08 µM and 7.4 ± 3.54 µM, respectively. The “effect on NO production” value in data set [1] is “did not significantly suppress NO production”. Further, the “anti-tau aggregation effect” value in data set [4] is on record as “significant reductions in tau aggregation”. Besides, the “cytotoxicity (result in words)” value in the data set with RAW 264.7 cells is on record as “no significant reduction in cell survival”. The inhibition at 40 µM in the data set with NLRP3 was not below 20%.
